Where two headings read alike, the source gives them in different places.
Tests used:
[1] = test system: COS Cell; test: COS Cell IC50 (Cell-Based Assay)
Experimental: (§1) FPT IC50 (inhibition of farnesyl protein transferase, in vitro enzyme assay) and COS Cell IC50 (Cell-Based Assay) were determined following the assay procedures described in WO 95110516, published Apr. 20, 1995. GGPT IC50 (inhibition of geranylgeranyl protein transferase, in vitro enzyme assay), Cell Mat Assay, and anti-tumor activity (in vivo anti-tumor studies) could be determined by the assay procedures described in WO 95/10516. The disclosure of WO 95/10516 is incorporated herein by reference thereto.

[2] = molecular target: T1, farnesyl protein transferase (Homo sapiens, UniProt P49354+P49356); test: FPT IC50, inhibition of farnesyl protein transferase, in vitro enzyme assay (H-ras); type: biochemical
Experimental: as §1

[3] = test system: Human tumor cells; test: Soft Agar Assay (anchorage-independent growth); type: cell-based; details: 10-16 days at 37° C., 5% CO2, MTT staining, read-out: Soft Agar FPT IC50
Experimental: Anchorage-independent growth is a characteristic of tumorigenic cell lines. Human tumor cells are suspended in growth medium containing 0.3% agarose and an indicated concentration of a farnesyl transferase inhibitor. The solution is overlayed onto growth medium solidified with 0.6% agarose containing the same concentration of farnesyl transferase inhibitor as the top layer. After the top layer is solidified, plates are incubated for 10-16 days at 37° C. under 5% CO2 to allow colony outgrowth. After incubation, the colonies are stained by overlaying the agar with a solution of MTT (3-[4,5-dimethyl-thiazol-2-yl]-2,5-diphenyltetrazolium bromide, Thiazolyl blue) (1 mg/mL in PBS). Colonies can be counted and the IC50 's can be determined.

[4] = molecular target: T1, farnesyl protein transferase; test: FPT IC50, inhibition of farnesyl protein transferase (K-ras); type: biochemical
Experimental: as §1

IC50 [2] | IC50 [3] | IC50 [4] | IC50 ([3]; value given in M) | Structure (SMILES) | IC50 [1]
18 nM | > 500 nM | 42 nM | – | CC(C)(C)OC(=O)N1CCN(C(=O)CN2CCC(CC(=O)N3CCC([C@H]4c5ncc(Br)cc5CCc5cc(Cl)cc(Br)c54)CC3)CC2)CC1 [Compound 8.0] | 22 nM
3.4 nM | – | 17 nM | > 500 nM | O=C(CN1CCC(CC(=O)N2CCC([C@H]3c4ncc(Br)cc4CCc4cc(Cl)cc(Br)c43)CC2)CC1)N[C@@H]1O[C@H](CO)[C@H](O)[C@H](O)[C@H]1O [Compound 6.0] | 300 nM
5.4 nM | – | – | – | O=C(CC1CCN(CC(=O)N2CCc3ccccc32)CC1)N1CCC([C@H]2c3ncc(Br)cc3CCc3cc(Cl)cc(Br)c32)CC1 [Compound 10.0] | 100 nM
4.3 nM | 300 nM | 46 nM | – | CCN(CC)C(=O)CN1CCC(CC(=O)N2CCC([C@H]3c4ncc(Br)cc4CCc4cc(Cl)cc(Br)c43)CC2)CC1 [Compound 4.0] | 40 nM
5 nM | 100 nM | 20 nM | – | O=C(CC1CCN(CC(=O)N2CCOCC2)CC1)N1CCC([C@H]2c3ncc(Br)cc3CCc3cc(Cl)cc(Br)c32)CC1 [Compound 7.0] | 25 nM
1.8 nM | 70 nM | 8.6 nM | – | NC(=O)CN1CCC(CC(=O)N2CCC([C@H]3c4ncc(Br)cc4CCc4cc(Cl)cc(Br)c43)CC2)CC1 [Compound 2.0] | 6 nM
3.9 nM | 175 nM | 26 nM | – | CON(C)C(=O)CN1CCC(CC(=O)N2CCC([C@H]3c4ncc(Br)cc4CCc4cc(Cl)cc(Br)c43)CC2)CC1 [Compound 3.0] | 20 nM
4.3 nM | 500 nM | 17 nM | – | O=C(CC1CCN(CC(=O)N2CCNCC2)CC1)N1CCC([C@H]2c3ncc(Br)cc3CCc3cc(Cl)cc(Br)c32)CC1 [Compound 9.0] | 120 nM
28 nM | – | – | – | CC(C)(C)OC(=O)CN1CCC(CC(=O)N2CCC([C@H]3c4ncc(Br)cc4CCc4cc(Cl)cc(Br)c43)CC2)CC1 [Compound 11.0] | –
16 nM | – | 51.9 nM | – | O=C(CN1CCC(CC(=O)N2CCC([C@H]3c4ncc(Br)cc4CCc4cc(Cl)cc(Br)c43)CC2)CC1)NCc1ccccc1 [Compound 5.0] | 840 nM
2 nM | 60 nM | – | – | O=C(CC1CCN(CC(O)CO)CC1)N1CCC([C@H]2c3ncc(Br)cc3CCc3cc(Cl)cc(Br)c32)CC1 (stereo partly shown) [Compound 20.0] | < 10 nM

Reference: patent US6040305A, “Compounds useful for inhibition of farnesyl protein transferase” (Schering Corporation, priority 1997, dated 2000)
